In article PMC11240257, “Engineered Methionine Adenosyltransferase Cascades for Metabolic Labeling of Individual DNA Methylomes in Live Cells” (Journal of the American Chemical Society, 2024) one finds Km data, which are given here for two compounds.

Common to all, as to experiment: HPLC-MS/MS quantitation of accumulated cofactor, steady state
What all share (format): biochemical
Holding throughout (details): co-substrate ATP

Experiment [1] concerns the target T1, mouse MAT2A (Mus musculus, UniProt Q3THS6, S114A/I117A).
T1 construct: recombinant, produced in vitro from bacterial cells; monogenic multimer without MAT2B
An excerpt:
(§1) HPLC-MS/MS quantitation of accumulated cofactor, steady state on mouse MAT2A

Experiment [2] deals with T2, mouse MAT2A (Mus musculus, UniProt Q3THS6).
T2 construct: recombinant, produced in vitro from bacterial cells; monogenic multimer without MAT2B
T2 sequence (Q3THS6 whole entry): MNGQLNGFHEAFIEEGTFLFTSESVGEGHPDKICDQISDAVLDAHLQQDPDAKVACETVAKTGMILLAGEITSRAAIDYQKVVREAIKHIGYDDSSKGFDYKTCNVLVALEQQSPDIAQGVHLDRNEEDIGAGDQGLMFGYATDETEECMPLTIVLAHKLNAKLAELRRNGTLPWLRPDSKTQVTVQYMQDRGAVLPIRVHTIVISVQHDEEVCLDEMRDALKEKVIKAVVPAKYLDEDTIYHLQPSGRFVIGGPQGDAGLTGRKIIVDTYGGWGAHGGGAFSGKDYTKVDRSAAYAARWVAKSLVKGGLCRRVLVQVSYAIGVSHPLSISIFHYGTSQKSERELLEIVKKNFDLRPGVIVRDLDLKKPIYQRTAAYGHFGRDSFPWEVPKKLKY
Text: as §1

Experiment [3] concerns the target T3, mouse MAT2A (Mus musculus, UniProt Q3THS6, Q113N/I117A).
T3 construct: recombinant, produced in vitro from bacterial cells; monogenic multimer without MAT2B
Text: as §1

Experiment [4] addresses T4, mouse MAT2A (Mus musculus, UniProt Q3THS6, I117A).
T4 construct: recombinant, produced in vitro from bacterial cells; monogenic multimer without MAT2B
Text: as §1

Read-outs that look alike come from different tables or passages of the source.

T1 sequence (Q3THS6 whole entry S114A/I117A): as the sequence (Q3THS6 whole entry) above, with S114A, I117A counted along it
T4 sequence (Q3THS6 whole entry I117A): as the sequence (Q3THS6 whole entry) above, with I117A counted along it
T3 sequence (Q3THS6 whole entry Q113N/I117A): as the sequence (Q3THS6 whole entry) above, with Q113N, I117A counted along it

Consider `CSCC[C@H](N)C(=O)O` [Met, L-methionine], for which the Km turned out to be 1.4 ± 0.41 mM at mouse MAT2A [1] (read-out: Km /), 0.02 ± 0.003 mM on mouse MAT2A [2] (read-out: Km /), 1.4 ± 0.56 mM on mouse MAT2A [3] (read-out: Km /) and 0.645 ± 0.023 mM on mouse MAT2A [4] (read-out: Km /).
In the case of `[N-]=[N+]=NCCCC#CCSCC[C@H](N)C(=O)O` [N3-Met, S-(6-azidohex-2-yn-1-yl)-L-homocysteine], the Km worked out at 1.52 ± 0.043 mM on mouse MAT2A [1] (read-out: Km / mM), 1.03 ± 0.23 mM at mouse MAT2A [2] (read-out: Km / mM), 1.44 ± 0.27 mM on mouse MAT2A [3] (read-out: Km / mM) and 0.92 ± 0.1 mM on mouse MAT2A [4] (read-out: Km / mM).
